Test results published in paper PMC8580996, “2-Oxoglutarate derivatives can selectively enhance or inhibit the activity of human oxygenases” (Nature Communications, 2021).
Where “and” joins values, the source holds several entries; their conditions need not be identical. Equal entries are not always repeated.

Key:
AspH = biological target: T1, AspH (Homo sapiens, UniProt Q12797); conditions: 0.05 μM AspH, 1.0 μM hFX-CP101-119, 3.0 μM 2OG, ref 21 (supplementary ref 1); cited from earlier work
T1 construct: the tetratricopeptide repeat domain (His6-AspH315-758), was produced and purified as previously reported; made in house
T1 sequence (Q12797 315-758): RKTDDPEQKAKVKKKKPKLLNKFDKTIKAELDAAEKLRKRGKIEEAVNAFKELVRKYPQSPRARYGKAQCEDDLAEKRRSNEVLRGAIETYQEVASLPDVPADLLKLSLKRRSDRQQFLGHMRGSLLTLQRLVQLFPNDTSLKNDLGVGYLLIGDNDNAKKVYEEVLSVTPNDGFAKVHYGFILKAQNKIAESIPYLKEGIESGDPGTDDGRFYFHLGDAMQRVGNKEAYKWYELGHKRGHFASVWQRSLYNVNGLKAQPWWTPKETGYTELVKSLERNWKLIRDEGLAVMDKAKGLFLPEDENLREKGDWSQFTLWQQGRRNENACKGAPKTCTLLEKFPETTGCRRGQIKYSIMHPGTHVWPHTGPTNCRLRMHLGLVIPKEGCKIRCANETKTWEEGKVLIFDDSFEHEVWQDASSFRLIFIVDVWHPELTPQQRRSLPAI

FIH [1] = biological target: T2, FIH (Homo sapiens, UniProt Q9NWT6); experiment: SPE-MS FIH turnover (cosubstrate) assay in the absence of 2OG; type: biochemical; conditions: 330 μM 2OG or 2OG derivative, no 2OG, t = 15 min
Summary of the method: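 With 2OG omitted, 2OG analogues were tested as cosubstrates for recombinant FIH, and +16 Da hydroxylated product versus remaining substrate was monitored by C4 solid-phase extraction coupled to MS. Percent conversion came from product integral over summed substrate and product integrals.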

FIH [2] = biological target: T2, FIH; experiment: FIH steady-state kinetic parameters (SPE-MS, initial hydroxylation rates); type: biochemical; parameters: slope of initial reaction rate: unit not given here
Experimental: Final 2OG/2OG derivative concentrations are given in Supplementary Figs. 5 and 6. Reactions were monitored with a rate of ~1 sample/40 s using the same SPE-MS configuration as described above. Data were analyzed as described above and the slopes of the initial reaction rates (Supplementary Figs. 5 and 6) fitted to a Michaelis–Menten plot using non-linear regression (GraphPad Prism 5). […]
determine kinetic parameters for 2OG derivatives (continues on the following page). Maximum velocities (vapp ) and Michaelis constants (Kapp) of FIH were determined in independent triplicates for 2OG and the 2OG […]
SPE-MS as described in the Methods section. […]
acid (LAA), and 20 μM ammonium iron(II) sulfate hexahydrate (FAS, (NH4)2Fe(SO4)2·6H2O) in buffer (50 mM […]
Tris, 50 mM NaCl, pH 7.5, 20° C). […]
data are provided as a Source Data file. […]
concentrations of 2OG; (b) hydroxylation rates used to determine kinetic parameters of FIH for 2OG; (c) time […]
3-methyl-2OG (1); (d) hydroxylation rates used to determine kinetic parameters of FIH for 1; (e) time course of […]
2OG (12); (f) hydroxylation rates used to determine kinetic parameters of FIH for 12; (g) time course of the FIH- […]
(h) hydroxylation rates used to determine kinetic parameters of FIH for 14; (i) time course of the FIH-catalyzed […]
(carboxycarbonyl)cyclopentane-1-carboxylic acid (22); (j) hydroxylation rates used to determine kinetic parameters of FIH for 22.
Supplementary Figure 6. Hydroxylation rates of FIH-catalyzed CA1-20 hydroxylations used to determine kinetic parameters for 2OG derivatives (continues on the following page). Maximum velocities (vapp ) and […]
ammonium iron(II) sulfate hexahydrate (FAS, (NH4)2Fe(SO4)2·6H2O) in buffer (50 mM Tris, 50 mM NaCl, pH […]
Source data are provided as a Source […]
of 2OG; (b) hydroxylation rates used to determine kinetic parameters of FIH for 2OG; (c) time course of the FIH-catalyzed hydroxylation reaction of the CA1-20 peptide for the shown concentrations of 3-methyl-2OG (1); (d) hydroxylation rates used to determine kinetic parameters of FIH for 1; (e) time course of the FIH -catalyzed hydroxylation reaction of the CA 1-20 peptide for the shown concentrations of 4 -methyl-2OG (12); (f) hydroxylation rates used to determine kinetic parameters of FIH for 12; (g) time course of the FIH-catalyzed hydroxylation reaction of the CA1-20 peptide for the shown concentrations of 4-ethyl-2OG (14); (h) hydroxylation rates used to determine kinetic parameters of FIH for 14; (i) time course of the FIH-catalyzed hydroxylation reaction of the CA1-20 peptide for the shown concentrations of 3-(carboxycarbonyl)cyclopentane-1-carboxylic acid (22); (j) hydroxylation rates used to determine kinetic parameters of FIH for 22.

T2 sequence (Q9NWT6 whole entry): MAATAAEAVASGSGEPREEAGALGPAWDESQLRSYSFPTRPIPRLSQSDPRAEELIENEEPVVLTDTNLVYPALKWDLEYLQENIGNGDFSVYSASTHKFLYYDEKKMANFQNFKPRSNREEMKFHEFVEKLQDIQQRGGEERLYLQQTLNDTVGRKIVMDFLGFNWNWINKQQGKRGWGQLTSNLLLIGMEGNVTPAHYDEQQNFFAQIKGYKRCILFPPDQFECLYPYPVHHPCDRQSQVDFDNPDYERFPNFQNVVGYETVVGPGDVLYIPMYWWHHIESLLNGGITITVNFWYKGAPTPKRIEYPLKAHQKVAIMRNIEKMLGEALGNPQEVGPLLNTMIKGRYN

## CC(CC(=O)O)C(=O)C(=O)O (centres unmarked) [compound 1, 3-methyl-2OG]
AspH
  IC50 AspH: inactive
FIH [1]; CA1–20 substrate
  FIH activity, %-substrate conversion: > 90%
FIH [1]; HIF-1α788–822 substrate
  FIH activity, %-substrate conversion: ~55%
FIH [2]; 0.5 uM compound 1, time 2.098 min
  SPE-MS determined concentration of hydroxylated HIF-1a peptide: 0.06331 µM and 0.08965 µM and 0.06287 µM
FIH [2]; 0.5 uM compound 1, time 2.797 min
  SPE-MS determined concentration of hydroxylated HIF-1a peptide: 0.08372 µM and 0.1109 µM and 0.07695 µM
FIH [2]; 0.5 uM compound 1, time 3.49667 min
  SPE-MS determined concentration of hydroxylated HIF-1a peptide: 0.08826 µM and 0.1256 µM and 0.08643 µM
FIH [2]; 1 uM compound 1, time 0.699833 min
  SPE-MS determined concentration of hydroxylated HIF-1a peptide: 0.05043 µM and 0.061 µM and 0.05097 µM
FIH [2]; 1 uM compound 1, time 2.098 min
  SPE-MS determined concentration of hydroxylated HIF-1a peptide: 0.09957 µM and 0.1098 µM and 0.1306 µM
FIH [2]; 1 uM compound 1, time 2.797 min
  SPE-MS determined concentration of hydroxylated HIF-1a peptide: 0.1199 µM and 0.1466 µM and 0.1681 µM
FIH [2]; 1 uM compound 1, time 3.49667 min
  SPE-MS determined concentration of hydroxylated HIF-1a peptide: 0.1336 µM
FIH [2]; 2 uM compound 1, time 0.699833 min
  SPE-MS determined concentration of hydroxylated HIF-1a peptide: 0.07885 µM and 0.08056 µM and 0.05916 µM
FIH [2]; 2 uM compound 1, time 2.098 min
  SPE-MS determined concentration of hydroxylated HIF-1a peptide: 0.1678 µM and 0.1886 µM and 0.1681 µM
FIH [2]; 2 uM compound 1, time 2.797 min
  SPE-MS determined concentration of hydroxylated HIF-1a peptide: 0.2164 µM and 0.22 µM and 0.1894 µM
FIH [2]; 2 uM compound 1, time 3.49667 min
  SPE-MS determined concentration of hydroxylated HIF-1a peptide: 0.2473 µM and 0.2744 µM and 0.2266 µM
FIH [2]; 4 uM compound 1, time 0.699833 min
  SPE-MS determined concentration of hydroxylated HIF-1a peptide: 0.1172 µM and 0.1135 µM and 0.107 µM
FIH [2]; 4 uM compound 1, time 2.098 min
  SPE-MS determined concentration of hydroxylated HIF-1a peptide: 0.2558 µM and 0.2656 µM and 0.234 µM
FIH [2]; 4 uM compound 1, time 2.797 min
  SPE-MS determined concentration of hydroxylated HIF-1a peptide: 0.3116 µM and 0.3222 µM and 0.2973 µM
FIH [2]; 4 uM compound 1, time 3.49667 min
  SPE-MS determined concentration of hydroxylated HIF-1a peptide: 0.3622 µM and 0.3831 µM and 0.3473 µM
FIH [2]; 8 uM compound 1, time 0.699833 min
  SPE-MS determined concentration of hydroxylated HIF-1a peptide: 0.1456 µM and 0.1338 µM and 0.1272 µM
FIH [2]; 8 uM compound 1, time 2.098 min
  SPE-MS determined concentration of hydroxylated HIF-1a peptide: 0.3135 µM and 0.3095 µM and 0.2806 µM
FIH [2]; 8 uM compound 1, time 2.797 min
  SPE-MS determined concentration of hydroxylated HIF-1a peptide: 0.4067 µM and 0.3823 µM and 0.3379 µM
FIH [2]; 8 uM compound 1, time 3.49667 min
  SPE-MS determined concentration of hydroxylated HIF-1a peptide: 0.4757 µM and 0.4602 µM and 0.409 µM
FIH [2]; 16 uM compound 1, time 0.699833 min
  SPE-MS determined concentration of hydroxylated HIF-1a peptide: 0.1765 µM and 0.1666 µM and 0.1574 µM
FIH [2]; 16 uM compound 1, time 2.098 min
  SPE-MS determined concentration of hydroxylated HIF-1a peptide: 0.4139 µM and 0.367 µM and 0.3575 µM
FIH [2]; 16 uM compound 1, time 2.797 min
  SPE-MS determined concentration of hydroxylated HIF-1a peptide: 0.521 µM and 0.462 µM and 0.4549 µM
FIH [2]; 16 uM compound 1, time 3.49667 min
  SPE-MS determined concentration of hydroxylated HIF-1a peptide: 0.6245 µM and 0.5486 µM and 0.5372 µM
FIH [2]; 32 uM compound 1, time 0.699833 min
  SPE-MS determined concentration of hydroxylated HIF-1a peptide: 0.1826 µM and 0.1844 µM and 0.1573 µM
FIH [2]; 32 uM compound 1, time 2.098 min
  SPE-MS determined concentration of hydroxylated HIF-1a peptide: 0.3964 µM and 0.4231 µM and 0.3597 µM
FIH [2]; 32 uM compound 1, time 2.797 min
  SPE-MS determined concentration of hydroxylated HIF-1a peptide: 0.4756 µM and 0.5305 µM and 0.4654 µM
FIH [2]; 32 uM compound 1, time 3.49667 min
  SPE-MS determined concentration of hydroxylated HIF-1a peptide: 0.5827 µM and 0.6364 µM and 0.5668 µM
FIH [2]; CA1-20, 1 μM 1
  slope of initial reaction rate: 0.003599 and 0.003561 and 0.003828
FIH [2]; CA1-20, 2 μM 1
  slope of initial reaction rate: 0.005878 and 0.006514 and 0.003549
FIH [2]; CA1-20, 4 μM 1
  slope of initial reaction rate: 0.007274 and 0.005274 and 0.008096
FIH [2]; CA1-20, 8 μM 1
  slope of initial reaction rate: 0.01215 and 0.01007 and 0.00891
FIH [2]; HIF-1a788-822, 0.5 μM 1
  slope of initial reaction rate: 0.000467 and 0.000683 and 0.000488
FIH [2]; HIF-1a788-822, 1 μM 1
  slope of initial reaction rate: 0.000739 and 0.000996 and 0.000679
FIH [2]; HIF-1a788-822, 2 μM 1
  slope of initial reaction rate: 0.001185 and 0.001312 and 0.001139
FIH [2]; HIF-1a788-822, 4 μM 1
  slope of initial reaction rate: 0.001713 and 0.001863 and 0.001678
FIH [2]; HIF-1a788-822, 8 μM 1
  slope of initial reaction rate: 0.002198 and 0.002166 and 0.001912
FIH [2]; HIF-1a788-822, 16 μM 1
  slope of initial reaction rate: 0.002859 and 0.002469 and 0.002609
FIH [2]; HIF-1a788-822, 32 μM 1
  slope of initial reaction rate: 0.002446 and 0.002883 and 0.002629
